Experimental data from ChEMBL document CHEMBL5257089, “Gamabufotalin Induces Apoptosis and Cytoprotective Autophagy through the mTOR Signaling Pathway in Hepatocellular Carcinoma” (J Nat Prod, 2023).
Active and inactive are the calls of the source. The rule behind the calls is not given here.

Columns and labels:
[1] = system: Huh-7; assay: Induction of autophagic flux in human Huh-7 cells harbouring mCherry-egfp-LC3 assessed as increase in yellow puncta ratio at 10 nM by fluorescence imaging based assay; format: functional, cell-based
[2] = system: Huh-7; assay: Induction of apoptosis in human Huh-7 cells assessed as viable cells at 10 nM incubated for 48 hrs by Annexin V-FITC/PI staining based flow cytometry method (reference value: 91.5%); format: functional; settings: read-out: Activity
[3] = system: Hep 3B2; assay: Induction of autophagic flux in human Hep3B cells assessed as increase in number of autophagic vesicles at 10 nM by transmission electron microscopic analysis; format: functional, cell-based
[4] = system: Huh-7; assay: Induction of apoptosis in human Huh-7 cells assessed as necrotic cells at 10 nM incubated for 48 hrs in presence of gamabufotalin by Annexin V-FITC/PI staining based flow cytometry method (reference value: 1.0%); format: functional
[5] = system: Hep 3B2; assay: Induction of apoptosis in human Hep3B cells assessed as early apoptotic cells at 10 nM incubated for 48 hrs in presence of gamabufotalin by Annexin V-FITC/PI staining based flow cytometry method (reference value: 1.3%); format: functional
[6] = system: Huh-7; assay: Induction of apoptosis in human Huh-7 cells assessed as increase in bax level at 10 nM incubated for 48 hrs in presence of gamabufotalin by immunoblot analysis; format: functional, cell-based
[7] = system: Hep 3B2; assay: Induction of apoptosis in human Hep3B cells assessed as late apoptotic cells at 10 nM incubated for 48 hrs in presence of gamabufotalin by Annexin V-FITC/PI staining based flow cytometry method (reference value: 3.5%); format: functional
[8] = system: Hep 3B2; assay: Induction of apoptosis in human Hep3B cells assessed as necrotic cells at 10 nM incubated for 48 hrs by Annexin V-FITC/PI staining based flow cytometry method (reference value: 1.2%); format: functional
[9] = system: Huh-7; assay: Induction of autophagy in human Huh-7 cells assessed as rescue of mTOR phosphorylation level at upto 10 nM incubated for 48 hrs in presence of gamabufotalin by immunoblot method; format: functional, cell-based
[10] = system: Huh-7; assay: Induction of apoptosis in human Huh-7 cells assessed as early apoptotic cells at 10 nM incubated for 48 hrs by Annexin V-FITC/PI staining based flow cytometry method (reference value: 2.8%); format: functional
[11] = system: Hep 3B2; assay: Induction of apoptosis in human Hep3B cells assessed as increase in PARP level at 10 nM incubated for 48 hrs in presence of gamabufotalin by immunoblot analysis; format: functional, cell-based
[12] = system: Hep 3B2; assay: Antitumor activity against human Hep3B cells xenografted in nude mouse model assessed as downregulation of ULK1 phosphorylation expression expression at 5 mg/kg,ip administered every second day for 3 weeks by Western blot analysis; format: functional, organism-based
[13] = system: Huh-7; assay: Induction of autophagy in human Huh-7 cells assessed as rescue of mTOR phosphorylation level at upto 25 nM incubated for 48 hrs in presence of chloroquine by immunoblot method; format: functional, cell-based
[14] = system: Hep 3B2; assay: Induction of autophagic flux in human Hep3B cells harbouring mCherry-egfp-LC3 assessed as reduction in number of red puncta ratio at 25 nM incubated for 15 mins in presence of chloroquine by laser scanning confocal microscopic analysis; format: functional, cell-based
[15] = system: Huh-7; assay: Induction of apoptosis in human Huh-7 cells assessed as increase in PARP expression at upto 25 nM incubated for 48 hrs by Western blot analysis; format: functional, cell-based
[16] = system: Hep 3B2; assay: Induction of apoptosis in human Hep3B cells assessed as increase in cleaved bax level at 25 nM incubated for 48 hrs in presence of chloroquine by immunoblot analysis; format: functional, cell-based
[17] = system: Hep 3B2; assay: Induction of apoptosis in human Hep3B cells assessed as reduction in Bcl-2 level at 25 nM incubated for 48 hrs in presence of chloroquine by immunoblot analysis; format: functional, cell-based
[18] = system: Hep 3B2; assay: Induction of autophagic flux in human Hep3B cells assessed as increase in high electron density vesicles at 25 nM incubated for 48 hrs by transmission electron microscopic analysis; format: functional, cell-based
[19] = system: Hep 3B2; assay: Induction of apoptosis in human Hep3B cells assessed as early apoptotic cells at 25 nM measured after 48 hrs in presence of Z-VAD-FMK by annexin V-FITC/Propidium iodide staining based flow cytometric analysis (reference value: 1.6%); format: functional
[20] = system: Huh-7; assay: Induction of apoptosis in human Huh-7 cells assessed as condensed nuclei at upto 25 uM incubated for 48 hrs by Hoechst33258 staining based fluorescence microscopy; format: functional, cell-based
[21] = system: Huh-7; assay: Induction of autophagy in human Huh-7 cells assessed as reduction in autophagic vesicles at 25 nM incubated for 48 hrs in presence of 4,6-dimorpholino-N-(4-nitrophenyl)-1,3,5-triazin-2-amine by transmission electron microscopy based analysis; format: functional, cell-based
[22] = system: Huh-7; assay: Induction of apoptosis in human Huh-7 cells assessed as upregulation of cleaved PARP level […] incubated for 48 hrs in presence of 4,6-dimorpholino-N-(4-nitrophenyl)-1,3,5-triazin-2-amine by immunoblot analysis; format: functional, cell-based
[23] = system: Huh-7; assay: Induction of autophagy in human Huh-7 cells assessed as restoration of ULK1 phosphorylation expression at 25 uM incubated for 48 hrs in presence of 4,6-dimorpholino-N-(4-nitrophenyl)-1,3,5-triazin-2-amine by immunoblot analysis; format: functional, cell-based
[24] = system: Hep 3B2; assay: Induction of apoptosis in human Hep3B cells assessed as early apoptotic cells at 20 nM incubated for 48 hrs by Annexin V-FITC/PI staining based flow cytometry method (reference value: 3.9%); format: functional
[25] = system: Hep 3B2; assay: Induction of autophagy in human Hep3B cells assessed as rescue of ULK1 phosphorylation level at upto 25 nM incubated for 48 hrs in presence of chloroquine by immunoblot method; format: functional, cell-based
[26] = system: Huh-7; assay: Induction of apoptosis in human Huh-7 cells assessed as increase in cleaved PARP level at 25 nM incubated for 48 hrs in presence of chloroquine by immunoblot analysis; format: functional, cell-based
[27] = system: Hep 3B2; assay: Induction of autophagic flux in human Hep3B cells assessed as increase in intracellular vesicles at 25 nM incubated for 48 hrs by transmission electron microscopic analysis; format: functional, cell-based
[28] = system: Huh-7; assay: Induction of apoptosis in human Huh-7 cells assessed as late apoptotic cells at 25 nM incubated for 48 hrs in presence of chloroquine by Annexin V-FITC/PI staining based flow cytometry method (reference value: 4.7%); format: functional
[29] = system: Huh-7; assay: Induction of autophagic flux in human Huh-7 cells harbouring mCherry-egfp-LC3 assessed as increase in red puncta at 25 nM incubated for 15 mins by laser scanning confocal microscopic analysis; format: functional, cell-based
[30] = system: Hep 3B2; assay: Induction of apoptosis in human Hep3B cells assessed as late apoptotic cells at 25 nM measured after 48 hrs by annexin V-FITC/Propidium iodide staining based flow cytometric analysis (reference value: 2.4%); format: functional
[31] = system: Huh-7; assay: Induction of autophagy in human Huh-7 cells assessed as rescue of ULK1 phosphorylation level at upto 25 nM incubated for 48 hrs in presence of chloroquine by immunoblot method; format: functional, cell-based
[32] = Toxicity in mouse assessed as effect on serum BUN level at 5 mg/kg,ip administered every second day for 3 weeks by H and E staining based microscopic method; format: organism-based; settings: in vivo, 504 h
[33] = system: Huh-7; assay: Induction of apoptosis in human Huh-7 cells assessed as late apoptotic cells at 25 nM measured after 48 hrs by annexin V-FITC/Propidium iodide staining based flow cytometric analysis (reference value: 6.1%); format: functional
[34] = system: Hep 3B2; assay: Induction of autophagic flux in human Hep3B cells assessed as increase in LC3-II expression at upto 25 nM incubated for 48 hrs by Western blot analysis; format: functional, cell-based

CCN(CC)CCCC(C)Nc1ccnc2cc(Cl)ccc12 (centres undefined) [CHLOROQUINE]
Activity [1]: Active
viability at 0.01 µM [2]: 90.3%
Activity [3]: Active
Activity [4]: 3.4%
Activity [5]: 17.9%
Activity [6]: Active
Activity [7]: 17.4%
Activity [8]: 0.4%
Activity [9]: Active
Activity [10]: 2.9%
Activity [11]: Active

C[C@]12CC[C@H](O)C[C@H]1CC[C@@H]1[C@@H]2[C@H](O)C[C@]2(C)[C@@H](c3ccc(=O)oc3)CC[C@]12O [GAMABUFOTALIN]
Activity [12]: Active
Activity [13]: Active
Activity [14]: Active
Activity [15]: Active
Activity [16]: Active
Activity [17]: Active
Activity [18]: Active
Activity [19]: 4.4%
Activity [20]: Active
Activity [21]: Active
Activity [22]: Active
Activity [23]: Active
Activity [24]: 7.8%
Activity [25]: Active
Activity [26]: Active
Activity [27]: Active
Activity [28]: 19.1%
Activity [29]: Active
Activity [30]: 13.2%
Activity [31]: Active
Activity [32]: Non-Toxic
Activity [33]: 20.3%
Activity [34]: Active
